Results reported in patent publication US20130131075A1, “NEW COMPOUNDS” (Boehringer Ingelheim International GmbH, priority 2009, published 2013).

Target: T1, cynomolgus BK1-receptor (Macaca fascicularis, UniProt Q3BCU0)
T1 construct: expressed in transfected cells; host or cells: CHO cells (homogenate)
T1 sequence (Q3BCU0 1-352): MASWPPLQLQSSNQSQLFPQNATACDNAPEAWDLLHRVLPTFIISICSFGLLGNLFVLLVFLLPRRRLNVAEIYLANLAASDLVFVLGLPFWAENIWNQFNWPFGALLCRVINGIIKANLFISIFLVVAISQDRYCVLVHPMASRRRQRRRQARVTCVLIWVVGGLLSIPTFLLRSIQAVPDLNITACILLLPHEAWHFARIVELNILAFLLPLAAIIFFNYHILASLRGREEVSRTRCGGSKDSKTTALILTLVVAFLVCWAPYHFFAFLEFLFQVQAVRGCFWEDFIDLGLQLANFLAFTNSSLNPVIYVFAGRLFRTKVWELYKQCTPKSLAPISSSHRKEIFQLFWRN
Assay: cynoBK1-receptor binding assay
Conditions: CHO cells expressing cynomolgus BK1-receptor, radioligand kallidine (DesArg10,Leu9); for inhibition at 10 µM: at 10 μgmol/L
Procedure, shortened: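 Ki derived by non-linear fitting of concentration-binding curves. Test compound competed against 0.5 to 5.0 nM tritiated kallidine (DesArg10,Leu9) on cynomolgus BK1-CHO cell homogenate (50 to 250 μg protein/assay) for 60-180 minutes at ambient temperature, then filtered. 1.0 μM kallidine (DesArg10) set non-specific binding.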

inhibition at 10 µM [%]	Ki [nM]	SMILES
95	–	O=C(N[C@@]1(C(=O)NCc2ccc(Nc3ccccc3C(F)(F)F)cc2)CCOC1)c1ccc(F)nc1 [(107)]
–	222	O=C(N[C@@]1(C(=O)NCc2ccc(Nc3ccc(F)cc3C(F)(F)F)cc2)CCOC1)c1cncs1 [(299)]
78	–	CN(C)CC(=O)NC1(C(=O)NCc2ccc(Nc3ccccc3C(F)(F)F)cc2)CC1 [(12)]
68	–	O=C(NC1(C(=O)NCc2ccc(Nc3ccccc3C(F)(F)F)cc2)CC1)c1ccccn1 [(21)]
–	21	O=C(NC1(C(=O)NCc2ccc(Nc3ccc(F)cc3C(F)(F)F)cn2)CC1)c1cnc2[nH]ccc2c1 [(384)]
–	15	Cc1ncc(C(=O)NC2(C(=O)NCc3ccc(Nc4ccc(Cl)cc4C(F)F)cn3)CC2)cn1 [(386)]
–	78	O=C(NC1(C(=O)NCc2ccc(Nc3ccc(Cl)cc3C(F)(F)F)cn2)CC1)c1ccc2[nH]cnc2c1 [(266)]
100	9.8	O=C(NC1(C(=O)NCc2ccc(Nc3ccc(Br)cc3C(F)(F)F)cn2)CC1)c1cncs1 [(172)]
–	6.5	CCCNc1ncc(C(=O)NC2(C(=O)NCc3ccc(Nc4ccc(Cl)cc4C(F)(F)F)cn3)CC2)cn1 [(380)]
–	125	Cc1cc(Nc2ccccc2C(F)(F)F)cnc1CNC(=O)[C@]1(NC(=O)c2cncc(N)c2)CCOC1 [(359)]
–	37	O=C(NC1(C(=O)NCc2ccc(Nc3ccc(Cl)cc3C(F)(F)F)cn2)CC1)c1cnsc1 [(358)]
–	57	Nc1cncc(C(=O)N[C@@]2(C(=O)NCc3ccc(Nc4ccc(Cl)cc4C(F)(F)F)cc3)CCOC2)c1 [(321)]
112	13	O=C(NC1(C(=O)NCc2ccc(Nc3ccc(F)cc3C(F)(F)F)cc2)CC1)c1ccno1 [(31)]
–	37	Nc1cc(C(=O)NC2(C(=O)NCc3ccc(Nc4ccc(F)cc4C(F)(F)F)cn3)CC2)cnn1 [(262)]
103	417	O=C(N[C@@]1(C(=O)NCc2ccc(Nc3ccccc3C(F)(F)F)cc2)CCOC1)c1ccc(O)nc1 [(98)]
112	38	Cc1ccc(Nc2ccc(CNC(=O)C3(NC(=O)c4cncnc4)CC3)nc2)c(C(F)(F)F)c1 [(51)]
101	–	O=C(NC1(C(=O)NCc2ncc(Nc3ccc(Br)cc3C(F)(F)F)cc2F)CC1)c1cncnc1 [(179)]
–	24	O=C(NC1(C(=O)NCc2ccc(Nc3ccc(Cl)cc3C(F)(F)F)cn2)CC1)c1cn[nH]c1 [(372)]
–	101	O=C(NC1(C(=O)NCc2ccc(Nc3ccc(Cl)cc3C(F)(F)F)cn2)CC1)C(F)(F)F [(362)]
107	–	CNc1ncc(C(=O)N[C@@]2(C(=O)NCc3ccc(Nc4ccccc4C(F)(F)F)cc3)CCOC2)cn1 [(82)]
89	416	Nc1cccc(C(=O)N[C@@]2(C(=O)NCc3ccc(Nc4ccccc4C(F)(F)F)cc3)CCOC2)n1 [(72)]
–	1.9	CC(NC(=O)C1(NC(=O)c2cncnc2)CC1)c1ncc(Nc2ccc(Br)cc2C(F)(F)F)cc1F (centres unmarked) [(213)]
94	36	O=C(N[C@@]1(C(=O)NCc2ccc(Nc3ccc(F)cc3C(F)(F)F)cn2)CCOC1)c1cncnc1 [(43)]
104	292	COc1cc(C(=O)N[C@@]2(C(=O)NCc3ccc(Nc4ccccc4C(F)(F)F)cc3)CCOC2)ccn1 [(79)]
–	0.7	Cc1ncc(C(=O)NC2(C(=O)NCc3ncc(Nc4ccc(F)cc4C(F)(F)F)cc3F)CC2)cn1 [(298)]
–	12	CNc1ccc(C(=O)NC2(C(=O)NCc3ccc(Nc4ccc(Cl)cc4C(F)(F)F)cn3)CC2)cn1 [(347)]
78	–	COc1ccc(C(=O)N[C@@]2(C(=O)NCc3ccc(Nc4ccccc4C(F)(F)F)cc3)CCOC2)o1 [(68)]

inhibition at 10 µM [%]	Ki [nM]	SMILES
–	7.2	CNc1ccc(C(=O)NC2(C(=O)NCc3ccc(Nc4ccc(Br)cc4C(F)(F)F)cn3)CC2)cn1 [(343)]
93	–	O=C(N[C@@]1(C(=O)NCc2ccc(Nc3ccccc3C(F)(F)F)cc2)CCOC1)c1cnco1 [(85)]
87	288	CC(NC(=O)[C@]1(NC(=O)c2cncnc2)CCOC1)c1ccc(Nc2ccc(Cl)cc2C(F)(F)F)cn1 (some centres unmarked) [(163)]
–	1.2	Cc1ncc(C(=O)NC2(C(=O)NCc3ccc(Nc4ccccc4C(F)(F)F)cc3F)CC2)cn1 [(294)]
–	456	O=C(CC(F)(F)F)N[C@@]1(C(=O)NCc2ncc(Nc3c(F)cccc3C(F)(F)F)cc2Cl)CCOC1 [(261)]
101	197	Cc1cc(Br)ccc1Nc1ccc(CNC(=O)C2(NC(=O)c3cncnc3)CC2)nc1 [(53)]
110	1.9	O=C(NC1(C(=O)NCc2ccc(Nc3ccc(F)cc3C(F)(F)F)cc2)CC1)c1cncnc1 [(33)]
105	3.2	Nc1cncc(C(=O)NC2(C(=O)NCc3ncc(Nc4ccc(F)cc4C(F)(F)F)cc3F)CC2)c1 [(152)]
78	–	O=C(NC1(C(=O)NCc2ccc(Nc3ccccc3C(F)(F)F)cc2)CC1)c1cnc(O)nc1O [(9)]
–	14	CC(=O)Nc1ccc(C(=O)NC2(C(=O)NCc3ccc(Nc4ccc(F)cc4C(F)(F)F)cn3)CC2)cn1 [(251)]
–	175	O=C(NC1(C(=O)NCc2ccc(Nc3ccc(F)cc3C(F)(F)F)cn2)CC1)c1cnc(N2CCCC2)nc1 [(250)]
–	40	Cc1ncc(C(=O)N[C@@]2(C(=O)NCc3ccc(Nc4c(F)cccc4C(F)(F)F)cc3F)CCOC2)cn1 [(291)]
–	95	COc1cncc(C(=O)NC2(C(=O)NCc3ccc(Nc4ccc(Cl)cc4C(F)(F)F)cn3)CC2)c1 [(313)]
113	6.2	O=C(NC1(C(=O)NCc2ccc(Nc3ccc(F)cc3C(F)(F)F)cc2)CC1)c1cncs1 [(29)]
104	19	O=C(NC1(C(=O)NCc2ccc(Nc3ccc(Cl)cc3Br)cn2)CC1)c1cncnc1 [(167)]
113	2.4	O=C(NC1(C(=O)NCc2ncc(Nc3c(F)cccc3C(F)(F)F)cc2F)CC1)c1cncnc1 [(120)]
111	77	Nc1ccc(C(=O)N[C@@]2(C(=O)NCc3ccc(Nc4ccccc4C(F)(F)F)cc3)CCOC2)cn1 [(57)]
106	17	N#Cc1cc(F)ccc1Nc1cnc(CNC(=O)C2(NC(=O)c3cncnc3)CC2)c(F)c1 [(160)]
107	8.5	Nc1cncc(C(=O)N[C@@]2(C(=O)NCc3ncc(Nc4ccc(F)cc4C(F)(F)F)cc3F)CCOC2)c1 [(156)]
106	15	O=C(NC1(C(=O)NCc2ncc(Nc3c(F)cccc3C(F)(F)F)cc2F)CC1)c1cncs1 [(135)]
–	76	CNc1cncc(C(=O)N[C@@]2(C(=O)NCc3ccc(Nc4ccc(F)cc4C(F)(F)F)cc3)CCOC2)c1 [(305)]
–	4.2	Nc1cncc(C(=O)N[C@@]2(C(=O)NCc3ccc(Nc4ccc(F)cc4C(F)(F)F)cc3F)CCOC2)c1 [(231)]
96	–	O=C(CC1CC1)NC1(C(=O)NCc2ccc(Nc3ccccc3C(F)(F)F)cc2)CC1 [(19)]
–	120	CN(C)c1cc(C(=O)NC2(C(=O)NCc3ccc(Nc4ccc(F)cc4C(F)(F)F)cn3)CC2)cnn1 [(252)]
–	57	Cc1ccc(C(=O)NC2(C(=O)NCc3ccc(Nc4ccc(Cl)cc4C(F)(F)F)cn3)CC2)cn1 [(312)]
–	49	O=C(NC1(C(=O)NCc2ccc(Nc3ccc(F)cc3C(F)(F)F)cn2)CC1)c1ccc(Cl)nc1 [(253)]
